Measured values from patent publication US10543250B2, “Antimicrobial fusion peptides” (Los Angeles Biomedical Research Institute at Harbor-UCLA …, priority 2015, dated 2020).
Entries after “also recorded” stand apart in the source; their conditions may differ.

Experiments:
[1] = tested on: wide panel of human pathogens; assay: Efficacy of γ-RP-1 variants against panel of human pathogens at pH 5.5 and 7.5 (Example 6); type: cell-based; conditions: pH 5.5 and 7.5, FIG. 16A-B
Description: The efficacy of RP-1 and γ-RP-1, along with a number of peptide variants and suitable control, was tested against a wide panel of human pathogens.
In another experiments, the following peptides were tested.

[2] = tested on: wide panel of Gram-negative human pathogens; assay: Efficacy against panel of Gram-negative human pathogens at pH 5.5 and 7.5 (Example 4); type: cell-based; conditions: compared to any other peptide tested
Description: The efficacy of RP-1 and γ-RP-1, along with a number of peptide variants and suitable control, was tested against a wide panel of Gram-negative human pathogens.

3D7 P. falciparum = assay: In vitro antimalarial activity; type: cell-based; conditions: at 12.5 mg/ml after incubation for 96 hour
Peptide pI = type: physicochemical
Description: Antimicrobial agents: RP-1 (pI/Mw: 10.82/2162.78 Da) is an 18-amino synthetic peptide derived from PF-4 family kinocidins. γ-RP-1 (pI/Mw: 10.64/4444.5 Da) is a 39-amino synthetic peptide comprising a CXCL4 kinocidin γ-core motif-RP-1 construct. Stock peptides dissolved in sterile ddH2O were diluted in suitable buffers. Antibiotics were purchased as purified powder and re-suspended in PBS per the manufacturer guidelines.

[3] = tested on: MDRAB clinical isolate HUMC-1; assay: Neutropenic murine model of MDRAB pneumonia; type: in vivo, Acinetobacter baumannii; conditions: for survival: neutropenic mice, aerosolized MDRAB HUMC-1, treatment for 3d, survival monitored to day 21, peptide 12.5 mg/kg IV qd, imipenem 15 mg/kg IP bid
Description: Neutropenic mice (cortisone acetate [250 mg/kg; subQ]+cyclophosphamide [200 mg/kg; IP] on study days-2, +3, and +8) were infected on day 0 (aerosolized; MDRAB clinical isolate HUMC-1; 5×10^8 CFU; lung Cx-positive). Treatment initiated 4 hr or 24 hr post-infection and continued for 3d. Groups:control (PBS); imipenem (15 mg/kg; IP; bid); γ-RP-1 (12.5 mg/kg; IV; qd); γ-RP-1 (12.5 mg/kg; IV; qd). Survival was then monitored to day 21. At end point or 21d, lungs and spleens were cultured. Outcomes were compared by non-parametric analysis. All studies adhered to institutional and AAALAC animal care policies.

MDRAB = assay: Biomatrix assay: efficacy in human blood, plasma or serum; type: cell-based, Acinetobacter baumannii; conditions: human blood ex vivo
Description: Efficacies of RP-1 and γ-RP-1 in human blood, plasma, or serum were assessed. Peptide was added to biomatrix simultaneously with MDRAB (final inoculum 10^5 CFU/ml; peptide range […]; volume 100 μl). Controls were performed using Mueller Hinton broth (MHB; CLSI). Following incubation (constant agitation; 2 h, 37° C.), survival was quantified by culture (n=3) upon blood agar and defined as CFU/ml. Independent minimum, n=2.

[4] = tested on: P. berghei ANKA luciferase; assay: In vivo antimalarial efficacy in infected mice; conditions: 12.5 mg/kg, IV treatment daily for 5 days, compared to chloroquine at the same concentration
Description: FIGS. 15 and 16 show the in vivo antimalarial activity of γ-RP-1 on Luciferase-expressing P. berghei ANKA (FIG. 15: single dose; FIG. 16: double dose). CQ: chloroquine.

Compound	efficacy compared with RP-1 across bacterial species [1]	efficacy against individual organisms and across the broader panel [2]	in vitro antimalarial effects, dose-response curve (3D7 P. falciparum)	pI (Peptide pI)	Total MDRAB burden (CFU) in lungs and spleens, reduction ([3]; as compared to control or imipenem treatments alone) [log CFU]	efficacy vs. MDRAB in a murine model of neutropenic pneumonia ([3]; in vivo)	survival [3] [%]	efficacy in human blood (MDRAB)	antimalarial activity in vivo [4]
γ-RP-1 (CPTAQLIATLKNGRKICLDLQALYKKFKKKLLKSLKRLG)	higher efficacy than RP-1	overall best efficacy	excellent IC50 curve	10.64	> 2	significant efficacy	72	significant efficacy; also recorded: greater efficacy	moderate antimalarial activity
C[C@@H](O)[C@H]1C(=O)N2C(C(=O)O)=C(SCCN=CN)C[C@H]12 [imipenem, reference compound]							16		
